Read-outs that look alike come from different tables or passages of the source.
Assays:
Assay type in all cases: in vivo
[1] = system: Brazilian crabgrass (Digitaria horizontalis); assay: Test F pre-/postemergence plant response; details: Digitaria horizontalis, scale 0 to 100, read-out: Plant response rating, Crabgrass, Brazil
In short: (§1)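 In a greenhouse, compounds carried in a non-phytotoxic surfactant-containing solvent mixture were applied to soil at planting and to young 1- to 4-leaf plants. About two to three weeks (14 to 21 days) afterward, each species was compared with controls and rated visually from 0 to 100.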

[2] = system: Italian ryegrass (Lolium multiflorum); assay: Test F pre-/postemergence plant response; details: Lolium multiflorum, scale 0 to 100, read-out: Plant response rating, Ryegrass, Italian; for pest or weed control at 16 g/ha: 16 g ai/ha; for pest or weed control at 31 g/ha: 31 g ai/ha; for pest or weed control at 125 g/ha: 125 g ai/ha
In short: as §1

[3] = system: barnyardgrass (Echinochloa crus-galli); assay: Test F pre-/postemergence plant response; details: Echinochloa crus-galli, scale 0 to 100, read-out: Plant response rating, Barnyardgrass
In short: as §1

[4] = system: dayflower (Virginia (VA) dayflower, Commelina virginica); assay: Test F pre-/postemergence plant response; details: Commelina virginica, scale 0 to 100, read-out: Plant response rating, Dayflower, VA
In short: as §1

[5] = system: giant foxtail (Setaria faberii); assay: Test F pre-/postemergence plant response; details: Setaria faberi, pre-emergence, scale 0 to 100, read-out: Plant response rating, Foxtail, Giant
In short: as §1

[6] = system: lambsquarters (Chenopodium album); assay: Test F pre-/postemergence plant response; details: Chenopodium album, pre-emergence, Preemergence, scale 0 to 100, read-out: Plant response rating, Lambsquarters
In short: as §1

[7] = system: large (Lg) crabgrass (Digitaria sanguinalis); assay: Test F pre-/postemergence plant response; details: Digitaria sanguinalis, pre-emergence, scale 0 to 100, read-out: Plant response rating, Crabgrass, Large
In short: as §1

[8] = system: morningglory (Ipomoea coccinea); assay: Test F pre-/postemergence plant response; details: Ipomoea, pre-emergence, scale 0 to 100, read-out: Plant response rating, Morningglory
In short: as §1

[9] = system: sandbur (southern sandbur, Cenchrus echinatus); assay: Test F pre-/postemergence plant response; details: Cenchrus echinatus, scale 0 to 100, read-out: Plant response rating, Sandbur
In short: as §1

soybean (Glycine max) = assay: Test F pre-/postemergence plant response; details: Glycine max, scale 0 to 100, read-out: Plant response rating, Soybean
In short: as §1

[10] = system: surinam grass (Brachiaria decumbens); assay: Test F pre-/postemergence plant response; details: Urochloa decumbens, pre-emergence, scale 0 to 100, read-out: Plant response rating, Surinam Grass
In short: as §1

[11] = system: waterhemp_RES1 (ALS & Triazine resistant common waterhemp, Amaranthus rudis); assay: Test F postemergence plant response; details: scale 0 to 100
In short: (§2)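 Rated visually versus controls, 0 (no effect) to 100 (complete control), after 14–21 days in greenhouse. Compounds were sprayed postemergence on seedlings at 1- to 4-leaf stage, 2–18 cm tall.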

[12] = system: waterhemp_RES2 (ALS & HPPD resistant common waterhemp, Amaranthus rudis); assay: Test F postemergence plant response; details: scale 0 to 100
In short: as §2

[13] = post-emergence, 16 g ai/ha Postemergence
[14] = post-emergence, 31 g ai/ha Postemergence
[15] = post-emergence, 62 g ai/ha Postemergence
[16] = post-emergence, 125 g ai/ha Postemergence
[17] = pre-emergence, 16 g ai/ha Preemergence
[18] = pre-emergence, 31 g ai/ha Preemergence
[19] = pre-emergence, 62 g ai/ha Preemergence
[20] = pre-emergence, 125 g ai/ha Preemergence

Fc1cccc(Oc2ncc(Br)cn2)c1-c1cc(C(F)F)no1 [Compound 145, 5-bromo-2-[2-[3-(difluoromethyl)-5-isoxazolyl]-3-fluorophenoxy]pyrimidine]
30%: pest or weed control at 62 g/ha [3, 19]
10%: pest or weed control at 16 g/ha ([2]; post-emergence, Postemergence) | pest or weed control at 62 g/ha ([2]; post-emergence, 62 g ai/ha, Postemergence) | pest or weed control at 16 g/ha [3, 13] | pest or weed control at 16 g/ha ([7]; 16 g ai/ha Preemergence) | pest or weed control at 31 g/ha ([8]; 31 g ai/ha Preemergence)
40%: pest or weed control at 62 g/ha [1, 15] | pest or weed control at 62 g/ha ([2]; pre-emergence, Preemergence) | plant injury at 125 g/ha (soybean (Glycine max); [20])
90: Plant response rating, Waterhemp_RES2 ([12]; 31 g ai/ha Postemergence)
70%: pest or weed control at 125 g/ha [3, 16] | pest or weed control at 125 g/ha [4, 20]
60%: pest or weed control at 31 g/ha [4, 14]
50%: pest or weed control at 125 g/ha [1, 16] | pest or weed control at 62 g/ha [3, 15] | pest or weed control at 16 g/ha [4, 13]
75%: pest or weed control at 125 g/ha [3, 20] | pest or weed control at 62 g/ha [4, 15]
100: Plant response rating, Waterhemp_RES1 ([11]; 62 g ai/ha Postemergence) | Plant response rating, Waterhemp_RES1 ([11]; 125 g ai/ha Postemergence) | Plant response rating, Waterhemp_RES2 ([12]; 62 g ai/ha Postemergence) | Plant response rating, Waterhemp_RES2 ([12]; 125 g ai/ha Postemergence)
98: Plant response rating, Waterhemp_RES1 ([11]; 31 g ai/ha Postemergence)
95: Plant response rating, Waterhemp_RES1 ([11]; 16 g ai/ha Postemergence) | Plant response rating, Waterhemp_RES2 ([12]; 16 g ai/ha Postemergence)
5%: pest or weed control at 16 g/ha [1, 17] | pest or weed control at 31 g/ha ([2]; post-emergence, Postemergence) | pest or weed control at 31 g/ha [3, 18] | pest or weed control at 16 g/ha [9, 13] | pest or weed control at 31 g/ha [9, 14] | pest or weed control at 62 g/ha [9, 15]
100%: pest or weed control at 125 g/ha [1, 20] | pest or weed control at 125 g/ha ([5]; 125 g ai/ha Preemergence) | pest or weed control at 16 g/ha ([6]; 16 g ai/ha) | pest or weed control at 31 g/ha ([6]; 31 g ai/ha) | pest or weed control at 125 g/ha ([6]; 125 g ai/ha) | pest or weed control at 62 g/ha [6] | pest or weed control at 125 g/ha ([7]; 125 g ai/ha Preemergence)
35%: pest or weed control at 62 g/ha [4, 19] | pest or weed control at 125 g/ha ([8]; 125 g ai/ha Preemergence) | pest or weed control at 31 g/ha [9, 18]
90%: pest or weed control at 125 g/ha ([2]; pre-emergence, Preemergence)
65%: pest or weed control at 31 g/ha ([5]; 31 g ai/ha Preemergence)
98%: pest or weed control at 62 g/ha ([7]; 62 g ai/ha Preemergence)
95%: pest or weed control at 62 g/ha [1, 19] | pest or weed control at 31 g/ha ([7]; 31 g ai/ha Preemergence) | pest or weed control at 125 g/ha [9, 20] | plant injury at 16 g/ha (soybean (Glycine max); [13]) | plant injury at 31 g/ha (soybean (Glycine max); [14]) | plant injury at 62 g/ha (soybean (Glycine max); [15]) | plant injury at 125 g/ha (soybean (Glycine max); [16])
25%: pest or weed control at 16 g/ha ([2]; pre-emergence, Preemergence) | pest or weed control at 31 g/ha [3, 14] | pest or weed control at 62 g/ha ([9]; pre-emergence, Preemergence) | pest or weed control at 125 g/ha ([10]; 125 g ai/ha Preemergence)
85%: pest or weed control at 125 g/ha [4, 16] | pest or weed control at 62 g/ha ([5]; 62 g ai/ha Preemergence)
20%: pest or weed control at 16 g/ha [1, 13] | pest or weed control at 31 g/ha [1, 14] | pest or weed control at 31 g/ha ([2]; pre-emergence, Preemergence)
15%: pest or weed control at 125 g/ha ([2]; post-emergence, Postemergence) | pest or weed control at 62 g/ha ([8]; Preemergence) | pest or weed control at 125 g/ha [9, 16] | plant injury at 62 g/ha (soybean (Glycine max); pre-emergence, Preemergence)
0%: pest or weed control at 16 g/ha [3, 17] | pest or weed control at 16 g/ha [4, 17] | pest or weed control at 31 g/ha [4, 18] | pest or weed control at 16 g/ha ([5]; 16 g ai/ha Preemergence) | pest or weed control at 16 g/ha ([8]; 16 g ai/ha Preemergence) | pest or weed control at 16 g/ha [9, 17] | plant injury at 16 g/ha (soybean (Glycine max); [17]) | plant injury at 31 g/ha (soybean (Glycine max); [18]) | pest or weed control at 16 g/ha ([10]; 16 g ai/ha Preemergence) | pest or weed control at 31 g/ha ([10]; 31 g ai/ha Preemergence) | pest or weed control at 62 g/ha ([10]; Preemergence)
80%: pest or weed control at 31 g/ha [1, 18]

Reference: patent US10131652B2, “Pyrimidinyloxy benzene derivatives as herbicides” (E. I. DU PONT DE NEMOURS AND COMPANY, priority 2014, dated 2018)
